Data taken from patent US12005127B2, “DNA-PK inhibitors” (VERTEX PHARMACEUTICALS INCORPORATED, priority 2018, dated 2024).

Columns and labels:
DNA-PK [1] = biological target: T1, DNA-PK (Homo sapiens, UniProt P78527); assay: DNA-PK cellular assay (pDNA-PK Ser2056 sandwich ELISA, NCS-induced DSBs); format: cell-based; set-up: endogenous in cells; host or cells: A549 (human NSCLC); details: pDNA-PK (Ser2056) in A549 cells, NCS 50 ng/ml, 15 minutes
Excerpt: DNA-PK is recruited to and activated by double-strand breaks (DSB) in DNA and plays a critical role in the non-homologous end-joining (NHEJ) repair mechanism. Upon activation, DNA-PK undergoes rapid autophosphorylation at Ser2056. The measure of pDNA-PK (Ser2056) in response to DNA DSBs provides a cellular signaling assay to evaluate potential DNA-PK kinase inhibitors.
Neocarzinostatin (NCS) was used as a radiomimetic to induce DNA DSBs. The sandwich ELISA used the Meso Scale Discovery electrochemiluminescence technology platform which typically provides greater sensitivity than traditional ELISA formats.
A549 (human NSCLC) cells are plated at 25,000 cells/well in 100 uL of DMEM (Invitrogen cat #11995-040) supplemented with 1% Pen/Strep (Invitrogen cat #15070-063) and 10% FBS (Hyclone cat #SH30071.03HI) on black clear bottom 96 well plates (Costar #3904) and allowed to adhere overnight at 37° C. in 5% CO2. The following day, the compounds and NCS solutions are prepared by adding 100 ul of DMEM growth media per well in a Corning polypropylene V-bottom deep well plate (cat #3357). The HP Compound Dilution D300 instrument was used to add compounds to the appropriate wells using the setting logarithmic and 16-point titration singlet.
The DMEM NCS solution was prepared by adding NCS to DMEM media at 200 ng/ml (final assay concentration, 50 ng/ml). 100 ul of the DMEM/NCS solution is added to the wells with the compounds. 100 ul of this solution is then immediately added to the A549 cells. The cells are then incubated for 15 minutes at 37° C.
The complete lysis buffer is prepared by adding 1% Phosphatase inhibitor (Sigma cat #P2850) and 1% Protease Inhibitor (Sigma cat #P8340) to the Lanthascreen cellular assay lysis buffer (Invitrogen cat #PV5598). The media from the plate was removed by flicking and patting dry. 60 uL/well of the complete lysis buffer is added to each well. These plates are then incubated for at least 5 minutes in the lysis buffer at room temperature to ensure complete lysis. At this point the lysates can be transferred to prepared ELISA plates.
The prepared ELISA plates were prepared blocking the Mesoscale Goat-Anti-Mouse (GAM) plates with 150 uL/well of 3% Blocker A (Mesoscale cat #R93-BA) for one hour at room temperature with shaking. The capture antibody is prepared by diluting the mouse monoclonal anti-total DNA-PK (AbCAM cat #ab1832) to 3 ug/mL in 1% Blocker A. The blocked plates rinsed once with 200 uL D-PBS. The capture antibody (25 ul/well) was added to each well and allowed to incubate for an hour at room temperature while shaking. This was rinsed once with 200 ul D-PBS before adding 25 uL of the prepared cell lysate from the cell plates to the Mesoscale GAM ELISA plate. The lysate is then incubated on the plates for one hour at room temperature with shaking. The detection antibody (Epitomics rabbit anti-pS2056-DNA-PK) is prepared at a 1/1000 dilution (to a final concentration of 450 ng/mL) in 1% Blocker A. The GAM plates are washed once with 200 uL of D-PBS and then 25 uL/well of the detection antibody is added to the plate. This incubates for one hour at room temperature with shaking. The Sulfotag is prepared by adding Sulfo-Tag Goat-Anti-Rabbit antibody (Mesoscale cat #R32AB-1) at a 1/500 dilution (1 ug/mL) to 1% Blocker A. The GAM plates are washed with 200 uL of D-PBS and then 25 uL of the Sulfotag preparation is added to each well. Once the plates have been incubated with the final solution, the Sulfotag, for 1 hour, they are washed once with 200 uL of D-PBS. The 1× Read Buffer (Mesoscale cat #R32-TC) is made by diluting the 4× buffer in ddH20. 150 uL of 1× buffer is added to each well of the GAM plate and then the plate is read on the Sector Imager 2400. The readout (electrochemiluminescence) was plotted against the concentration of each compound and the IC50s were generated using Prism software (GraphPad Prism version 6.0e for Macintosh). […]

DNA-PK [2] = biological target: T1, DNA-PK; assay: DNA-PK inhibition assay (radiometric 33P-ATP kinase assay); format: biochemical; details: competitive tight-binding fit
Method: Compounds were screened for their ability to inhibit DNA-PK kinase using a standard radiometric assay. Briefly, in this kinase assay the transfer of the terminal ^33P-phosphate in ^33P-ATP to a peptide substrate is interrogated. The assay was carried out in 384-well plates to a final volume of 50 μL per well containing approximately 6 nM DNA-PK, 50 mM HEPES (pH 7.5), 10 mM MgCl2, 25 mM NaCl, 0.01% BSA, 1 mM DTT, 10 μg/mL sheared double-stranded DNA (obtained from Sigma), 0.8 mg/mL DNA-PK peptide (Glu-Pro-Pro-Leu-Ser-Gln-Glu-Ala-Phe-Ala-Asp-Leu-Trp-Lys-Lys-Lys, obtained from American Peptide), and 100 μM ATP. Accordingly, compounds of the invention were dissolved in DMSO to make 10 mM initial stock solutions. Serial dilutions in DMSO were then made to obtain the final solutions for the assay. A 0.75 μL aliquot of DMSO or inhibitor in DMSO was added to each well, followed by the addition of ATP substrate solution containing ^33P-ATP (obtained from Perkin Elmer). The reaction was started by the addition of DNA-PK, peptide and ds-DNA. After 45 min, the reaction was quenched with 25 μL of 5% phosphoric acid. The reaction mixture was transferred to MultiScreen HTS 384-well PH plates (obtained from Millipore), allowed to bind for one hour, and washed three times with 1% phosphoric acid. Following the addition of 50 μL of Ultima Gold™ high efficiency scintillant (obtained from Perkin Elmer), the samples were counted in a Packard TopCount NXT Microplate Scintillation and Luminescence Counter (Packard BioScience). The Ki values were calculated using Microsoft Excel Solver macros to fit the data to the kinetic model for competitive tight-binding inhibition. In Tables 1 and 2 below, Ki of less than 0.001 micromolar for the inhibition of DNA-PK is indicated as “A”; Ki of equal to or greater than 0.001 micromolar and less than 0.01 micromolar for the inhibition of DNA-PK as “B”; Ki of equal to or greater than 0.01 micromolar and less than 0.1 micromolar for the inhibition of DNA-PK as “C”; Ki of equal to or greater than 0.1 micromolar and less than 1 micromolar for the inhibition of DNA-PK for “D”; and Ki of equal to or greater than 1 micromolar as “E.”

An IC50 (DNA-PK [1]; Table 1) of under 100 nM and a Ki (DNA-PK [2]; Table 1, 100 μM ATP) of under 0.001 µM were found for `Cc1nc2c(c(N[C@H]3CC[C@@H](Oc4cc(N5CCOCC5)cc5ncncc45)CC3)n1)OCC2` [Compound 1, 2-methyl-N-[4-(7-morpholinoquinazolin-5-yl)oxycyclohexyl]-6,7-dihydrofuro[3,2-d]pyrimidin-4-amine] in this work.
An IC50 (DNA-PK [1]; Table 1) of under 100 nM and a Ki (DNA-PK [2]; Table 1, 100 μM ATP) of under 0.001 µM were found for `Cc1nc2c(c(N[C@H]3CC[C@@H](Oc4cc(N5CCOCC5)cc5ncnc(C#N)c45)CC3)n1)OCC2` [Compound 2, 5-[4-[(2-methyl-6,7-dihydrofuro[3,2-d]pyrimidin-4-yl)amino]cyclohexoxy]-7-morpholino-quinazoline-4-carbonitrile] in this work.
An IC50 (DNA-PK [1]; Table 1) of under 100 nM and a Ki (DNA-PK [2]; Table 1, 100 μM ATP) of under 0.001 µM were found for `Cc1nccc(N[C@H]2CC[C@@H](Oc3cc(N4CCOCC4)cc4ncncc34)CC2)n1` [Compound 3, 2-methyl-N-[4-(7-morpholinoquinazolin-5-yl)oxycyclohexyl]pyrimidin-4-amine] in this work.
An IC50 (DNA-PK [1]; Table 1) of under 100 nM and a Ki (DNA-PK [2]; Table 1, 100 μM ATP) of under 0.001 µM were found for `Cc1nccc(N[C@H]2CC[C@@H](Oc3cc(N4CCOCC4)cc4ncnc(C#N)c34)CC2)n1` [Compound 4, 5-[4-[(2-methylpyrimidin-4-yl)amino]cyclohexoxy]-7-morpholino-quinazoline-4-carbonitrile] in this work.
An IC50 (DNA-PK [1]; Table 1) of under 100 nM and a Ki (DNA-PK [2]; Table 1, 100 μM ATP) of under 0.001 µM were found for `COc1ncnc2cc(N3CCOCC3)cc(O[C@H]3CC[C@@H](Nc4nc(C)nc5c4OCC5)CC3)c12` [Compound 5, N-[4-(4-methoxy-7-morpholino-quinazolin-5-yl)oxycyclohexyl]-2-methyl-6,7-dihydrofuro[3,2-d]pyrimidin-4-amine] in this work.
An IC50 (DNA-PK [1]; Table 1) of under 100 nM and a Ki (DNA-PK [2]; Table 1, 100 μM ATP) of under 0.001 µM were found for `COc1ncnc2cc(N3CCOCC3)cc(O[C@H]3CC[C@@H](Nc4ccnc(C)n4)CC3)c12` [Compound 6, N-[4-(4-methoxy-7-morpholino-quinazolin-5-yl)oxycyclohexyl]-2-methyl-pyrimidin-4-amine] in this work.
An IC50 (DNA-PK [1]; Table 1) of 100 to 1000 nM and a Ki (DNA-PK [2]; Table 1, 100 μM ATP) of 0.001 to 0.01 µM were found for `O=C1c2ccccc2C(=O)N1[C@H]1CC[C@@H](Oc2cc(N3CCOCC3)cc3ncncc23)CC1` [Compound 7, 2-[4-(7-morpholinoquinazolin-5-yl)oxycyclohexyl]isoindoline-1,3-dione] in this work.
An IC50 (DNA-PK [1]; Table 1) of under 100 nM and a Ki (DNA-PK [2]; Table 1, 100 μM ATP) of under 0.001 µM were found for `CNC(=O)c1ccnc(N[C@H]2CC[C@@H](Oc3cc(N4CCOCC4)cc4ncncc34)CC2)n1` [Compound 8, N-methyl-2-[[4-(7-morpholinoquinazolin-5-yl)oxycyclohexyl]amino]pyrimidine-4-carboxamide] in this work.
An IC50 (DNA-PK [1]; Table 1) of under 100 nM and a Ki (DNA-PK [2]; Table 1, 100 μM ATP) of under 0.001 µM were found for `CNC(=O)c1ccnc(N[C@H]2CC[C@@H](Oc3cc(N4CCOCC4)cc4ncnc(OC)c34)CC2)n1` [Compound 9, 2-[[4-(4-methoxy-7-morpholino-quinazolin-5-yl)oxycyclohexyl]amino]-N-methyl-pyrimidine-4-carboxamide] in this work.
An IC50 (DNA-PK [1]; Table 1) of at least 1000 nM and a Ki (DNA-PK [2]; Table 1, 100 μM ATP) of 0.001 to 0.01 µM were found for `Cc1ncc2c(O[C@H]3CC[C@@H](NC(=O)OC(C)(C)C)CC3)cc(N3CCOCC3)cc2n1` [Compound 10, tert-butyl N-[4-(2-methyl-7-morpholino-quinazolin-5-yl)oxycyclohexyl]carbamate] in this work.
An IC50 (DNA-PK [1]; Table 1) of at least 1000 nM and a Ki (DNA-PK [2]; Table 1, 100 μM ATP) of under 0.001 µM were found for `CNC(=O)c1ccnc(N[C@H]2CC[C@@H](Oc3cc(N4CCOCC4)cc4nc[nH]c(=O)c34)CC2)n1` [Compound 11, N-methyl-2-[[4-[(7-morpholino-4-oxo-3H-quinazolin-5-yl)oxy]cyclohexyl]amino]pyrimidine-4-carboxamide] in this work.
An IC50 (DNA-PK [1]; Table 1) of 100 to 1000 nM and a Ki (DNA-PK [2]; Table 1, 100 μM ATP) of 0.001 to 0.01 µM were found for `Cc1nccc(N[C@H]2CC[C@@H](Oc3cc(N4CCOCC4)cc4nc(C)ncc34)CC2)n1` [Compound 12, 2-methyl-N-[4-(2-methyl-7-morpholino-quinazolin-5-yl)oxycyclohexyl]-pyrimidin-4-amine] in this work.
An IC50 (DNA-PK [1]; Table 1) of 100 to 1000 nM was found for `Cc1nccc(N[C@H]2CC[C@@H](Oc3cc(N4CCOCC4)cc4ncn(C)c(=O)c34)CC2)n1` [Compound 21, 3-methyl-5-[4-[(2-methylpyrimidin-4-yl)amino]cyclohexoxy]-7-morpholino-quinazolin-4-one] in this work.
An IC50 (DNA-PK [1]; Table 1) of 100 to 1000 nM was found for `CNC(=O)c1ccnc(N[C@H]2CC[C@@H](Oc3cc(N4CCOCC4)cc4ncn(C)c(=O)c34)CC2)n1` [Compound 25, N-methyl-2-[[4-(3-methyl-7-morpholino-4-oxo-quinazolin-5-yl)oxycyclohexyl]amino]pyrimidine-4-carboxamide] in this work.
An IC50 (DNA-PK [1]; Table 1) of 100 to 1000 nM was found for `Cn1cnc(C(=O)N[C@H]2CC[C@@H](Oc3cc(N4CCOCC4)cc4ncncc34)CC2)c1` [Compound 26, 1-methyl-N-((1s,4s)-4-((7-morpholinoquinazolin-5-yl)oxy)cyclohexyl)-1H-imidazole-4-carboxamide] in this work.
An IC50 (DNA-PK [1]; Table 1) of under 100 nM was found for `c1cnc(O[C@H]2CC[C@@H](Oc3cc(N4CCOCC4)cc4ncncc34)CC2)nc1` [Compound 27, 4-[5-cis-(4-pyrimidin-2-yloxycyclohexoxy)quinazolin-7-yl]morpholine] in this work.
An IC50 (DNA-PK [1]; Table 1) of under 100 nM was found for `c1cnc(O[C@H]2CC[C@H](Oc3cc(N4CCOCC4)cc4ncncc34)CC2)nc1` [Compound 28, 4-[5-trans-(4-pyrimidin-2-yloxycyclohexoxy)quinazolin-7-yl]morpholine] in this work.
A Ki (DNA-PK [2]; Table 2, 100 μM ATP) of 0.01 to 0.1 µM was found for `COc1ccc(COc2cc(N3CCOCC3)cc3ncnc(Cl)c23)cc1` [Compound 54, 4-[4-chloro-5-[(4-methoxyphenyl)methoxy]quinazolin-7-yl]morpholine] in this work.
An IC50 (DNA-PK [1]; Table 2) of 100 to 1000 nM was found for `COc1ccc(COc2cc(N3CCOCC3)cc3ncnc(C4CC4)c23)cc1` [Compound 56, 4-[4-cyclopropyl-5-[(4-methoxyphenyl)methoxy]quinazolin-7-yl]morpholine] in this work.
